Values quoted from earlier work in patent US20040248933A1, “Use of 4-phenyl-substituted tetrahydroisoquinolines in the treatment of pain, migraine headaches and urinary incontinence” (priority 2002, published 2004).

Test system: nocturnal enuresis patients
Settings: patients with nocturnal enuresis following treatment

SMILES: CN(C)CCCN1c2ccccc2CCc2ccccc21 [imipramine, Imipramine]
- Enuresis cured, share of patients: over 50%
- Improvements seen, further share of patients (in addition to those cured): 15-20%
